From patent US20240358693A1, “METHODS OF TREATING PAIN” (Aisa Pharma, Inc., priority 2023, published 2024)

System: participants with SSc-RP
Assay: Scleroderma Health Assessment Questionnaire (SHAQ): disability indices and visual analog scales
Assay type: in vivo, human
Settings: for SHAQ Alternative Disability Index, Mean / SHAQ Alternative Disability Index, Median / SHAQ Standard Disability Index, Mean / SHAQ Standard Disability Index, Median: Patients with Diagnosis of SSc
Excerpt: The standard, validated, patient reported outcome measures tool for SSc patients, the Scleroderma Health Assessment Questionnaire (SHAQ), will be used to assess the participant qualify of life. Details are attached in the Appendix. The participant quality of life will be scored, and a disability index calculated for each questionnaire completed by the patient at Screening and each in-clinic visit. The absolute change in participant quality of life from baseline to the end of each dosing period will be calculated similar to frequency data as before.
The SHAQ includes a Raynaud's VAS, which will be reported at screening and each in-clinic visit. The absolute change in Raynaud-VAS, assessed by the participants response to the SHAQ question ‘In the past 7 days, how much have your Raynaud's interfered with your daily activities?’ at baseline and the end of each dosing period will be calculated similar to frequency data as before.
The SHAQ is used to calculate a Disability Index to assess the participant qualify of life. The eight categories assessed by the Disability Index are 1) dressing and grooming, 2) arising, 3) eating, 4) walking, 5) hygiene, 6) reach, 7) grip, and 8) common daily activities. For each of these categories, patients report the amount of difficulty they have in performing two or three specific activities.
There are four possible responses for the Disability Index questions: • Without any difficulty=0 • With some difficulty=1 • With much difficulty=2 • Unable to do=3. • The highest score reported by the patient for any component question of the eight categories determines the score for that category. • If a component question is left blank or the response is too ambiguous to assign a score, then the score for that category is determined by the remaining completed question(s). • If all component questions are blank or if more than one answer is given, then follow up with the respondent is required. • If the respondent's mark is between the response columns, then move it to the closest one. If it's directly between the two, move it to the higher one.
Each of the disability items on the SHAQ has a companion aids/devices variable that is used to record what type(s) of assistance, if any, the participant uses for his/her usual activities. These variables (see below) are coded as follows: • 0=No assistance is needed. • 1=A special device is used by the patient in his/her usual activities. • 2=The patient usually needs help from another person. • 3=The patient usually needs BOTH a special device AND help from another person.
The scoring variables and scoring rules permit the computation of two disability indices, the Standard Disability Index and the Alternative Disability Index.
This question results in a new set of category scores that are computed by adjusting the score for each category, if necessary, based on the patient's use of an aid or device or assistance for that category. If either devices and/or help from another person are checked for a category, the score is set to “2”, unless the score is already “3” (i.e., scores of “0” or “1” are increased to “2”). For example, if the highest score for the dressing category is “1”, and the patient says they use a device for dressing, the computed category score would be “2”. The sum of the computed categories scores is then calculated and divided by the number of categories answered. This gives a score in the 0 to 3 range.
The aid and device variables are not used to calculate the alternative disability index; it is calculated by adding the scores for each of the categories and dividing by the number of categories answered. This gives a score in the 0 to 3 range.
The standard, validated, patient reported outcome measures tool for SSc patients, the SHAQ, was collected at the time points specified in the study schedules (FIG. 2 and FIGS. 4A and 4B) to assess the participant's quality of life. The SHAQ included a Raynaud's VAS that will also be reported separately.

[1] = Day 12, mITT Part A, SSc patients, cilnidipine 10 mg and/or tadalafil 5 mg as in the arm
[2] = Day 12, mITT Part A, SSc patients, cilnidipine 10 mg and/or tadalafil 5 mg as in the arm, subject 01-110 score excluded
[3] = Day 12, mITT Part A, SSc patients, cilnidipine 20 mg (+ tadalafil 5 mg in the combination arm)
[4] = In-Clinic Visit (Day 12), Cilnidipine 10 mg (N = 4), PP Population Part A
[5] = In-Clinic Visit (Day 12), Cilnidipine 20 mg (N = 4), PP Population Part A
[6] = In-Clinic Visit (Day 12), Pooled Cilnidipine 10 mg and Cilnidipine 10 mg + Tadalafil 5 mg (N = 9), PP Population Part A

Structure (SMILES): COCCOC(=O)C1=C(C)NC(C)=C(C(=O)OC/C=C/c2ccccc2)C1c1cccc([N+](=O)[O-])c1 (centres unmarked) [Cilnidipine, cilnidipine]
- SHAQ Visual Analogue Scale - Raynaud's, Change from Baseline, Mean [1]: 0.167
- SHAQ Visual Analogue Scale - Raynaud's, Change from Baseline, Median [1]: −0.100
- SHAQ Visual Analogue Scale - Raynaud's, In-Clinic Visit (Day 12), Mean [1]: 2.300
- SHAQ Visual Analogue Scale - Raynaud's, In-Clinic Visit (Day 12), Median [1]: 2.600
- SHAQ Visual Analogue Scale - Raynaud's, Percent Change from Baseline, Mean [1]: 11.36%
- SHAQ Visual Analogue Scale - Raynaud's, Percent Change from Baseline, Median [1]: −2.27%
- SHAQ Visual Analogue Scale - Breathing Problems, Change from Baseline, Mean [2]: −0.400
- SHAQ Visual Analogue Scale - Breathing Problems, Change from Baseline, Median [2]: 0.000
- SHAQ Visual Analogue Scale - Breathing Problems, In-Clinic Visit (Day 12), Mean [2]: 2.100
- SHAQ Visual Analogue Scale - Breathing Problems, In-Clinic Visit (Day 12), Median [2]: 0.000
- SHAQ Visual Analogue Scale - Breathing Problems, Percent Change from Baseline, Mean [2]: −16.00%
- SHAQ Visual Analogue Scale - Breathing Problems, Percent Change from Baseline, Median [2]: −16.00%
- SHAQ Alternative Disability Index, Change from Baseline, Mean [3]: −0.083
- SHAQ Alternative Disability Index, Change from Baseline, Median [3]: −0.125
- SHAQ Alternative Disability Index, In-Clinic Visit (Day 12), Mean [3]: 0.125
- SHAQ Alternative Disability Index, In-Clinic Visit (Day 12), Median [3]: 0.125
- SHAQ Alternative Disability Index, Percent Change from Baseline, Mean [3]: −41.67%
- SHAQ Alternative Disability Index, Percent Change from Baseline, Median [3]: −41.67%
- SHAQ Visual Analogue Scale - Breathing Problems, Change from Baseline, Mean [3]: −0.833
- SHAQ Visual Analogue Scale - Breathing Problems, Change from Baseline, Median [3]: −0.800
- SHAQ Visual Analogue Scale - Breathing Problems, In-Clinic Visit (Day 12), Mean [3]: 0.300
- SHAQ Visual Analogue Scale - Breathing Problems, In-Clinic Visit (Day 12), Median [3]: 0.400
- SHAQ Visual Analogue Scale - Breathing Problems, Percent Change from Baseline, Mean [3]: −5.56%
- SHAQ Visual Analogue Scale - Breathing Problems, Percent Change from Baseline, Median [3]: −66.67%
- SHAQ Visual Analogue Scale - Finger Ulcers, Change from Baseline, Mean [3]: −0.933
- SHAQ Visual Analogue Scale - Finger Ulcers, Change from Baseline, Median [3]: 0.000
- SHAQ Visual Analogue Scale - Finger Ulcers, In-Clinic Visit (Day 12), Mean [3]: 0.867
- SHAQ Visual Analogue Scale - Finger Ulcers, In-Clinic Visit (Day 12), Median [3]: 0.700
- SHAQ Visual Analogue Scale - Finger Ulcers, Percent Change from Baseline, Mean [3]: 35.29%
- SHAQ Visual Analogue Scale - Finger Ulcers, Percent Change from Baseline, Median [3]: 35.29%
- SHAQ Visual Analogue Scale - Intestinal Problems, Change from Baseline, Mean [3]: 0.300
- SHAQ Visual Analogue Scale - Intestinal Problems, Change from Baseline, Median [3]: 0.300
- SHAQ Visual Analogue Scale - Intestinal Problems, In-Clinic Visit (Day 12), Median [3]: 1.300
- SHAQ Visual Analogue Scale - Intestinal Problems, Percent Change from Baseline, Mean [3]: 35.00%
- SHAQ Visual Analogue Scale - Intestinal Problems, Percent Change from Baseline, Median [3]: 35.00%
- SHAQ Visual Analogue Scale - Overall Disease Severity, Change from Baseline, Median [3]: −1.600
- SHAQ Visual Analogue Scale - Overall Disease Severity, In-Clinic Visit (Day 12), Mean [3]: 1.033
- SHAQ Visual Analogue Scale - Overall Disease Severity, In-Clinic Visit (Day 12), Median [3]: 1.200
- SHAQ Visual Analogue Scale - Overall Disease Severity, Percent Change from Baseline, Median [3]: −60.00%
- SHAQ Visual Analogue Scale - Pain, Change from Baseline, Mean [3]: −1.100
- SHAQ Visual Analogue Scale - Pain, Change from Baseline, Median [3]: −0.800
- SHAQ Visual Analogue Scale - Pain, In-Clinic Visit (Day 12), Mean [3]: 1.067
- SHAQ Visual Analogue Scale - Pain, In-Clinic Visit (Day 12), Median [3]: 0.700
- SHAQ Visual Analogue Scale - Pain, Percent Change from Baseline, Mean [3]: −52.56%
- SHAQ Visual Analogue Scale - Pain, Percent Change from Baseline, Median [3]: −53.33%
- SHAQ Visual Analogue Scale - Raynaud's, Change from Baseline, Median [3]: −1.100
- SHAQ Visual Analogue Scale - Raynaud's, In-Clinic Visit (Day 12), Mean [3]: 1.033
- SHAQ Visual Analogue Scale - Raynaud's, In-Clinic Visit (Day 12), Median [3]: 1.100
- SHAQ Visual Analogue Scale - Raynaud's, Percent Change from Baseline, Median [3]: −44.00%
- SHAQ Alternative Disability Index, Mean [4]: 0.563
- SHAQ Alternative Disability Index, Median [4]: 0.500
- SHAQ Standard Disability Index, Mean [4]: 0.656
- SHAQ Standard Disability Index, Median [4]: 0.563
- SHAQ Alternative Disability Index, Mean [5]: 0.219
- SHAQ Alternative Disability Index, Median [5]: 0.188
- SHAQ Standard Disability Index, Mean [5]: 0.281
- SHAQ Standard Disability Index, Median [5]: 0.188
- SHAQ Visual Analogue Scale - Finger Ulcers, Mean [6]: 0.389
- SHAQ Visual Analogue Scale - Finger Ulcers, Median [6]: 0.000
- SHAQ Visual Analogue Scale - Intestinal Problems, Mean [6]: 1.217
- SHAQ Visual Analogue Scale - Intestinal Problems, Median [6]: 0.700
- SHAQ Visual Analogue Scale - Overall Disease Severity, Mean [6]: 2.439
